Test [1] has as its system conditioned fear stressed animal model (abnormal evacuation). Put plainly: Conditioned fear stress (CFS)-induced abnormal evacuation, wet feces weight. The test is classed as in vivo, rat. As to conditions: oral administration 1 hour before CFS loading; 30 minutes CFS; linear regression, n=12. An excerpt:
(§1) Male Sprague-Dawley rats (6 weeks of age, CLEA Japan) were used. The rats which passed 1 week or more after their receipt were divided into groups of 12 animals per group in such a manner that their average values and standard deviations of body weight became almost the same. The electric shock conditions were set in accordance with the results of preliminary examinations. That is, the rats were put into an electric shock device (17×17×39 cm, CB 2000 type, O'Hara) having an electrode set in the floor, and after 3 seconds of warning sound, their conditioning was carried out by applying an electric current of 2 mA at the maximum for 5 seconds per once per minute, a total of 15 times, and irradiating light at the time of the electric shock using 3 electric bulbs of 40 w. The control group was put into the electric shock device by the same protocol, but without applying the electric shock. From 18 to 24 hours thereafter, each drug to be tested was orally administered to each animal by force at a dose of 5 mL/kg, they were again put into the electric shock device 1 hour thereafter, and then a conditioned fear stress (CFS) loading was carried out by applying 3 seconds of warning sound and subsequent 5 seconds of light irradiation for 30 minutes.
The number of evacuations was recorded after 2, 4, 6, 8, 10, 15, 20, 25 and 30 minutes of the commencement of the CFS loading, and wet weights of feces were measured by recovering the feces at the time of the completion of the measurement. In addition, the feces were dried at 70° C. for 22 hours and then their dry weights were measured to calculate the moisture content. In this connection, the evacuations just after putting them into the measuring device were excluded from the measured values of the number of evacuations and feces weights.

Test [2] relates to conditioned fear stressed animal model (proximal large intestine transport). The experiment in a line: Proximal large intestine transport ability by marker method after CFS loading. As to conditions: 30 minutes after CFS loading. The test is classed as in vivo, rat. How it is done:
(§2) Male Sprague-Dawley rats (6 to 7 weeks of age, CLEA Japan) were used. The rats which passed about 1 week after their receipt were used in the test. The electric shock conditions were set in accordance with Example 1. That is, the rats were put into an electric shock device (17×17×39 cm, CB 2000 type, O'Hara) having an electrode set in the floor, and after 3 seconds of warning sound, their conditioning was carried out by applying an electric current of 2.5 mA for 5 seconds per minute per once, a total of 15 times, and irradiating light at the time of the electric shock using 3 electric bulbs of 40 w. The normal group was put into the electric shock device by the same protocol, but without applying the electric shock. From 20 to 24 hours thereafter, each drug to be tested was orally administered to each animal by force at a dose of 5 mL/kg, they were again put into the electric shock device 1 hour thereafter, and then a conditioned fear stress (CFS) loading was carried out by applying 3 seconds of warning sound and subsequent 5 seconds of light irradiation for 30 minutes.
Measurement of proximal large intestine transport ability by a marker method was carried out by modifying the method of Kadowaki et al. (Journal of Pharmacology and Experimental Therapeutics, 1993, vol. 266, p. 74-80). That is, abdominal part of each rat was subjected to median incision (about 1 cm) under pentobarbital (50 mg/kg ip) anesthesia, and the ileocecal junction was extracted. A large intestinal part of about 1 cm from the connecting part was extracted from the neck by inserting canula (SP 50). The animals were individually reared for 5 days until the test, under conditions of free ingestion and free drinking. A Carmine Red solution (0.2 mL of 0.5% methyl cellulose solution containing 3 g of Carmine Red and 5 g of acacia) was injected trough the canula, CFS was loaded for 30 minutes by the aforementioned method, and then the animals were sacrificed by a decapitation device. By quickly carrying out median incision, large intestine starting part-anus part was extracted, and the whole length and marker shifting distance were measured using the canula insertion part as the starting point. The large intestine transport ability (%) was calculated as (marker shifting distance)÷(whole length)×100.

For test [3], the system named is conditioned fear stressed animal model (freezing behavior). Put plainly: CFS-induced freezing behavior. Format: in vivo, rat. As to conditions: oral; for influence upon CFS-induced freezing behavior: 30 minutes observation after CFS loading, all of the doses tested.
Excerpt: as §1
Regarding the measurement of freezing behavior (freezing), a case of not moving at all during 30 seconds other than the movement accompanied by breathing was evaluated as the freezing behavior. The evaluation times were set to 0, 1, 3, 5, 7, 9, 12, 13, 14, 17, 18, 19, 22, 23, 24, 27, 28 and 29 minutes after the CFS loading, and the measurement was carried out at intervals of 30 seconds per minute. The ratio (%) of showing the freezing behavior by each animal was calculated in 3 plots of from 0 to 9 minutes (Block 1), from 10 to 19 minutes (Block 2) and from 20 to 29 minutes (Block 3) after the loading.

Test [4] concerns conditioned fear stressed animal model (distal large intestine transport). Put plainly: Distal large intestine transport ability by beads discharge method after CFS loading. The test is classed as in vivo, rat. As to conditions: control group 13.70, normal group 0.38. How it is done: as §2, with “test by 12 animals per group.” for “test.”
Measurement of large intestine transport ability by a beads discharge method was carried out by modifying the method of Negri et al. (British Journal of Pharmacology, 1999, no. 128, p. 1554-60). That is, under light ether anesthesia, silicon beads (3 mm in diameter) were inserted in a length of 3 cm into the rectum side from the anus part using a silicon rod. After waking, the silicon rod was immediately removed to carry out CFS loading. The CFS loading starting time and silicon beads discharging time were recorded, and the measurement finishing time was set to 90 minutes in CFS group and 8 hours in normal group after the starting of the measurement. The distal large intestine transport ability (mm/min) was calculated as 30 mm÷required beads discharge time (min).

Test [5] relates to conditioned fear stressed animal model. As to conditions: cited from earlier work; for freezing behavior: reported in the literature (Non-patent References 4-7).

Consider 7 compounds from patent publication US20080010691A1, “Method of Screening Therapeutic Agent for Irritable Bowel Syndrome” (priority 2005, published 2008).

Counter-ions that a name gives are not always drawn. Marks after values point to notes of the source that are not given here.

As to `Cn1cc(C(=O)[C@@H]2CCc3nc[nH]c3C2)c2ccccc21` [Ramosetron hydrochloride, ramosetron hydrochloride], the “ED50 value of the controlling ratio of wet feces weights increased by CFS loading” value in test [1] was 0.012 mg/kg. Also, the “proximal large intestine transport rate increased by the CFS loading” value in test [2] (0.1 mg/kg oral) is given as “lowered”. Also, the “influence upon CFS-induced freezing behavior” value in test [3] is listed as “did not exert influence”. Further, the “Distal large intestine transport ability” value in test [4] (dose 0.1 mg/kg oral) is given as 4.93** mm/min.

With `CN1C(=O)CN=C(c2ccccc2)c2cc(Cl)ccc21` [diazepam], in test [5], the freezing behavior result is “suppressed”.

`CN(C)C(=O)C(CCN1CCC(O)(c2ccc(Cl)cc2)CC1)(c1ccccc1)c1ccccc1` [Loperamide hydrochloride, loperamide hydrochloride]: in test [1], the “ED50 value of the controlling ratio of wet feces weights increased by CFS loading” value stood at 9.000 mg/kg. Also, the “proximal large intestine transport rate increased by the CFS loading” value in test [2] (10 mg/kg oral) is on record as “lowered”. For the same compound, in test [3] (action significant at a dose of 30 mg/kg), the “freezing behavior-expressing time of 20 to 29 minutes after CFS loading (Block 3)” value is reported as “dose-dependently prolonged”. The “Distal large intestine transport ability” value in test [4] (dose 10 mg/kg oral) is listed as 3.64** mm/min.

With `Cc1[nH]cnc1CN1CCc2c(c3ccccc3n2C)C1=O` [Alosetron hydrochloride, alosetron hydrochloride], the “ED50 value of the controlling ratio of wet feces weights increased by CFS loading” value in test [1] came to 0.078 mg/kg. Also, the “proximal large intestine transport rate increased by the CFS loading” value in test [2] (0.3 mg/kg oral) is given as “lowered”. Moreover, the “influence upon CFS-induced freezing behavior” value in test [3] is reported as “did not exert influence”. The “Distal large intestine transport ability” value in test [4] (dose 0.3 mg/kg oral) is reported as 5.04* mm/min.

On to `Cc1nccn1C[C@H]1CCc2c(c3cccc4c3n2CCC4)C1=O` [Cilansetron hydrochloride, cilansetron hydrochloride], for which, in test [1], the “ED50 value of the controlling ratio of wet feces weights increased by CFS loading” value is reported as 0.094 mg/kg. The “proximal large intestine transport rate increased by the CFS loading” value in test [2] (0.3 mg/kg oral) is “lowered”. In test [3], the “influence upon CFS-induced freezing behavior” value is “did not exert influence”. Besides, in test [4] (dose 0.3 mg/kg oral), the “Distal large intestine transport ability” value is listed as 5.06** mm/min.

As to `CNCCC(Oc1ccc(C(F)(F)F)cc1)c1ccccc1` (centres unmarked) [fluoxetine], in test [5], the freezing behavior result is “suppressed”. The bowel movement result in test [5] (reported in the literature (Non-patent References 5-7)) was “suppressed”.

With `Cc1ncc2n1-c1ccc(Cl)cc1C(c1ccccc1F)=NC2` [midazolam], in test [5], the freezing behavior entry was “suppressed”.
